{
  "source": "patent US20100267561A1",
  "about": "“HERBICIDAL PYRIDAZINONE DERIVATIVES” (priority 2007, published 2010)",
  "assay_in_all_cases": "Test B pre-/postemergence plant response",
  "assay_type_in_all_cases": "in vivo",
  "key": {"[1]": {"test_system": "bermudagrass (Cynodon dactylon)", "settings": "for pest or weed control at 31 g/ha: 31 g ai/ha, 100 complete control; for pest or weed control at 62 g/ha: 62 g ai/ha; for pest or weed control at 125 g/ha: 125 g ai/ha", "summary_of_the_method": "(§1)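 Visual scoring from 0 (no effect) to 100 (complete control) against untreated controls was done 13 to 15 days after greenhouse treatment. Chemicals were formulated in a surfactant-containing non-phytotoxic solvent and applied to soil preemergence or to 1- to 4-leaf (2-18 cm) plants postemergence.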"}, "[2]": {"test_system": "blackgrass (Alopecurus myosuroides)", "settings": "for pest or weed control at 31 g/ha: 31 g ai/ha, 100 complete control; for pest or weed control at 62 g/ha: 62 g ai/ha; for pest or weed control at 125 g/ha: 125 g ai/ha", "summary_of_the_method": "as §1"}, "[3]": {"test_system": "corn (Zea mays)", "settings": "Zea mays; for Corn plant response rating (crop injury, 0 = no effect, 100 = complete kill) at 31 g/ha: 31 g ai/ha, 100 complete control; for Corn plant response rating (crop injury, 0 = no effect, 100 = complete kill) at 62 g/ha: 62 g ai/ha; for Corn plant response rating (crop injury, 0 = no effect, 100 = complete kill) at 62 g/ha / Corn plant response rating (crop injury, 0 = no effect, 100 = complete kill) at 125 g/ha / Corn plant response rating (crop injury, 0 = no effect, 100 = complete kill) at 250 g/ha: scale 0 to 100; for Corn plant response rating (crop injury, 0 = no effect, 100 = complete kill) at 125 g/ha: 125 g ai/ha; for Corn plant response rating (crop injury, 0 = no effect, 100 = complete kill) at 250 g/ha: 250 g ai/ha", "summary_of_the_method": "as §1"}, "[4]": {"test_system": "eastern black (E.B.) nightshade (Solanum ptycanthum)", "settings": "Solanum, pre-emergence, Preemergence, read-out: Plant response rating, Nightshade, E. B.", "summary_of_the_method": "as §1"}, "[5]": {"test_system": "giant foxtail (Setaria faberii)", "settings": "Setaria faberi, read-out: Plant response rating, Foxtail, Giant; for pest or weed control at 31 g/ha: 31 g ai/ha, 100 complete control; for pest or weed control at 62 g/ha: 62 g ai/ha; for pest or weed control at 62 g/ha / pest or weed control at 125 g/ha / pest or weed control at 250 g/ha: scale 0 to 100; for pest or weed control at 125 g/ha: 125 g ai/ha; for pest or weed control at 250 g/ha: 250 g ai/ha", "summary_of_the_method": "as §1"}, "[6]": {"test_system": "lambsquarters (Chenopodium album)", "settings": "Chenopodium album, read-out: Plant response rating, Lambsquarters; for pest or weed control at 31 g/ha: 31 g ai/ha, 100 complete control; for pest or weed control at 62 g/ha: 62 g ai/ha; for pest or weed control at 62 g/ha / pest or weed control at 125 g/ha / pest or weed control at 250 g/ha: scale 0 to 100; for pest or weed control at 125 g/ha: 125 g ai/ha; for pest or weed control at 250 g/ha: 250 g ai/ha", "summary_of_the_method": "as §1"}, "[7]": {"test_system": "morningglory (Ipomoea coccinea)", "settings": "Ipomoea, post-emergence, Postemergence, scale 0 to 100, read-out: Plant response rating, Morningglory", "summary_of_the_method": "as §1"}, "[8]": {"settings": "250 g ai/ha, preemergence, 0-100 scale"}, "[9]": {"settings": "Cynodon dactylon, post-emergence, Postemergence, scale 0 to 100, read-out: Plant response rating, Bermudagrass"}, "[10]": {"settings": "Cynodon dactylon, pre-emergence, Preemergence, scale 0 to 100, read-out: Plant response rating, Bermudagrass"}, "[11]": {"settings": "Alopecurus myosuroides, post-emergence, Postemergence, scale 0 to 100, read-out: Plant response rating, Blackgrass"}, "[12]": {"settings": "Alopecurus myosuroides, pre-emergence, Preemergence, scale 0 to 100, read-out: Plant response rating, Blackgrass"}, "[13]": {"settings": "post-emergence, Postemergence, scale 0 to 100, 0 no effect"}, "[14]": {"settings": "pre-emergence, Preemergence, 0 to 100 scale, 0 no effect"}},
  "note": "Where two headings read alike, the source gives them in different places.",
  "data": [
    {"smiles": "Cc1cc(-c2ccc(C(F)(F)F)cc2)nn1-c1c(O)cnn(C)c1=O", "note": "[Compound 1, 5-hydroxy-2-methyl-4-[5-methyl-3-[4-(trifluoromethyl)phenyl]-1H-pyrazol-1-yl]-3(2H)-pyridazinone]", "values": [
      {"measurement": "Bermudagrass plant response rating", "setting": "[1]; [8]", "value": 100},
      {"measurement": "pest or weed control at 31 g/ha", "setting": "[1]; Cynodon dactylon, post-emergence, Postemergence, scale 0 to 100, 0 no effect, read-out: Plant response rating, Bermudagrass", "value": 100, "unit": "%"},
      {"measurement": "pest or weed control at 62 g/ha", "setting": "[1]; [9]", "value": 100, "unit": "%"},
      {"measurement": "pest or weed control at 125 g/ha", "setting": "[1]; [9]", "value": 100, "unit": "%"},
      {"measurement": "pest or weed control at 250 g/ha", "setting": "[1]; Cynodon dactylon, post-emergence, Postemergence, 250 g ai/ha, scale 0 to 100, read-out: Plant response rating, Bermudagrass", "value": 100, "unit": "%"},
      {"measurement": "pest or weed control at 31 g/ha", "setting": "[1]; Cynodon dactylon, pre-emergence, Preemergence, 0 to 100 scale, 0 no effect, read-out: Plant response rating, Bermudagrass", "value": 100, "unit": "%"},
      {"measurement": "pest or weed control at 62 g/ha", "setting": "[1]; [10]", "value": 100, "unit": "%"},
      {"measurement": "pest or weed control at 125 g/ha", "setting": "[1]; [10]", "value": 100, "unit": "%"},
      {"measurement": "Blackgrass plant response rating", "setting": "[2]; [8]", "value": 100},
      {"measurement": "pest or weed control at 31 g/ha", "setting": "[2]; Alopecurus myosuroides, post-emergence, Postemergence, scale 0 to 100, 0 no effect, read-out: Plant response rating, Blackgrass", "value": 20, "unit": "%"},
      {"measurement": "pest or weed control at 62 g/ha", "setting": "[2]; [11]", "value": 90, "unit": "%"},
      {"measurement": "pest or weed control at 125 g/ha", "setting": "[2]; [11]", "value": 100, "unit": "%"},
      {"measurement": "pest or weed control at 250 g/ha", "setting": "[2]; Alopecurus myosuroides, post-emergence, Postemergence, 250 g ai/ha, scale 0 to 100, read-out: Plant response rating, Blackgrass", "value": 100, "unit": "%"},
      {"measurement": "pest or weed control at 31 g/ha", "setting": "[2]; Alopecurus myosuroides, pre-emergence, Preemergence, 0 to 100 scale, 0 no effect, read-out: Plant response rating, Blackgrass", "value": 100, "unit": "%"},
      {"measurement": "pest or weed control at 62 g/ha", "setting": "[2]; [12]", "value": 100, "unit": "%"},
      {"measurement": "pest or weed control at 125 g/ha", "setting": "[2]; [12]", "value": 100, "unit": "%"},
      {"measurement": "Corn plant response rating (crop injury, 0 = no effect, 100 = complete kill) at 31 g/ha", "setting": "[3]; [13]", "value": 10, "unit": "%"},
      {"measurement": "Corn plant response rating (crop injury, 0 = no effect, 100 = complete kill) at 62 g/ha", "setting": "[3]; post-emergence, Postemergence", "value": 100, "unit": "%"},
      {"measurement": "Corn plant response rating (crop injury, 0 = no effect, 100 = complete kill) at 125 g/ha", "setting": "[3]; post-emergence, Postemergence", "value": 100, "unit": "%"},
      {"measurement": "Corn plant response rating (crop injury, 0 = no effect, 100 = complete kill) at 250 g/ha", "setting": "[3]; post-emergence, Postemergence", "value": 100, "unit": "%"},
      {"measurement": "Corn plant response rating (crop injury, 0 = no effect, 100 = complete kill) at 31 g/ha", "setting": "[3]; [14]", "value": 90, "unit": "%"},
      {"measurement": "Corn plant response rating (crop injury, 0 = no effect, 100 = complete kill) at 62 g/ha", "setting": "[3]; pre-emergence, Preemergence", "value": 95, "unit": "%"},
      {"measurement": "Corn plant response rating (crop injury, 0 = no effect, 100 = complete kill) at 125 g/ha", "setting": "[3]; pre-emergence, Preemergence", "value": 100, "unit": "%"},
      {"measurement": "Corn plant response rating (crop injury, 0 = no effect, 100 = complete kill) at 250 g/ha", "setting": "[3]; pre-emergence, Preemergence", "value": 100, "unit": "%"},
      {"measurement": "pest or weed control at 31 g/ha", "setting": "[4]; 31 g ai/ha, 0 to 100 scale, 0 no effect, 100 complete control", "value": 0, "unit": "%"},
      {"measurement": "pest or weed control at 62 g/ha", "setting": "[4]; 62 g ai/ha, scale 0 to 100", "value": 0, "unit": "%"},
      {"measurement": "pest or weed control at 125 g/ha", "setting": "[4]; 125 g ai/ha, scale 0 to 100", "value": 0, "unit": "%"},
      {"measurement": "pest or weed control at 250 g/ha", "setting": "[4]; 250 g ai/ha, scale 0 to 100", "value": 0, "unit": "%"},
      {"measurement": "pest or weed control at 31 g/ha", "setting": "[5]; [13]", "value": 100, "unit": "%"},
      {"measurement": "pest or weed control at 62 g/ha", "setting": "[5]; post-emergence, Postemergence", "value": 100, "unit": "%"},
      {"measurement": "pest or weed control at 125 g/ha", "setting": "[5]; post-emergence, Postemergence", "value": 100, "unit": "%"},
      {"measurement": "pest or weed control at 250 g/ha", "setting": "[5]; post-emergence, Postemergence", "value": 100, "unit": "%"},
      {"measurement": "pest or weed control at 31 g/ha", "setting": "[5]; [14]", "value": 100, "unit": "%"},
      {"measurement": "pest or weed control at 62 g/ha", "setting": "[5]; pre-emergence, Preemergence", "value": 100, "unit": "%"},
      {"measurement": "pest or weed control at 125 g/ha", "setting": "[5]; pre-emergence, Preemergence", "value": 100, "unit": "%"},
      {"measurement": "pest or weed control at 250 g/ha", "setting": "[5]; pre-emergence, Preemergence", "value": 100, "unit": "%"},
      {"measurement": "pest or weed control at 31 g/ha", "setting": "[6]; [13]", "value": 0, "unit": "%"},
      {"measurement": "pest or weed control at 62 g/ha", "setting": "[6]; post-emergence, Postemergence", "value": 0, "unit": "%"},
      {"measurement": "pest or weed control at 125 g/ha", "setting": "[6]; post-emergence, Postemergence", "value": 40, "unit": "%"},
      {"measurement": "pest or weed control at 250 g/ha", "setting": "[6]; post-emergence, Postemergence", "value": 50, "unit": "%"},
      {"measurement": "pest or weed control at 31 g/ha", "setting": "[6]; [14]", "value": 0, "unit": "%"},
      {"measurement": "pest or weed control at 62 g/ha", "setting": "[6]; pre-emergence, Preemergence", "value": 0, "unit": "%"},
      {"measurement": "pest or weed control at 125 g/ha", "setting": "[6]; pre-emergence, Preemergence", "value": 0, "unit": "%"},
      {"measurement": "pest or weed control at 250 g/ha", "setting": "[6]; pre-emergence, Preemergence", "value": 0, "unit": "%"},
      {"measurement": "pest or weed control at 62 g/ha", "setting": "[7]; 62 g ai/ha", "value": 0, "unit": "%"},
      {"measurement": "pest or weed control at 125 g/ha", "setting": "[7]; 125 g ai/ha", "value": 0, "unit": "%"},
      {"measurement": "pest or weed control at 250 g/ha", "setting": "[7]; 250 g ai/ha", "value": 0, "unit": "%"}
    ]}
  ]
}
